Experiment [1] concerns the target T1, nitrile hydratase (Pseudonocardia thermophila, UniProt Q7SID2+Q7SID3).
Description: (§1) In HPLC analysis of a reaction solution in the Examples, ULTRON 80HG (50×8 φmm) was used as an HPLC column, and 10 mM aqueous phosphate solution was used as a developing solution. Acrylamide and acrylonitrile were detected by absorbance at 220 nm to determine their concentrations.
MT-10822 strain (FERM BP-5785, see JP-A 11-253168) having a nitrile hydratase gene introduced into Escherichia coli HB101, deposited by Mitsui Chemicals, Inc., was used as the nitrile hydratase-containing cell in this example.
For culture of this microbial strain, 15.0 L medium having the following composition was prepared in a 30 L culture container and sterilized with high-pressure steam at 121° C. for 20 minutes. Ampicillin was added at a final concentration of 50 μg/ml to this medium, and the microbial strain was inoculated via a platinum loop thereto and cultured at 37° C. at 700 rpm for 20 hours. […]
The reaction was terminated by adding 80 g of 10 mM aqueous phosphoric acid, and then the concentration of acrylamide in the reaction solution was determined by HPLC analysis. Subsequently, the concentration of the microbial suspension was determined on the basis of the dry weight of the microorganism, and then the amount of formed acrylamide per unit dry weight of the microorganism was calculated. […]
Experiment [2] addresses T1, nitrile hydratase. This is another data set of the same source.
Description: as §1
(§2) The reaction was terminated by adding 80 g of 10 mM aqueous phosphoric acid, and then the concentration of acrylamide in the reaction solution was determined by HPLC analysis. Subsequently, the concentration of the microbial suspension based on the dry weight of the microorganism was determined, and then the amount of formed acrylamide per unit dry weight of the microorganism was calculated.
A wet microorganism was obtained in the same manner as in Example 3. […] The suspension was kept at 10° C. under stirring, while the air (40 N-ml/min.) was passed through the gaseous phase in the flask. 0, 1, 2, 3, 7 and 19 days after storage, a part of the microbial suspension was removed. […] The amount of formed acrylamide in each of the collected microbial suspensions per unit dry weight of the microorganism was determined in the same manner as in Example 3.
A wet microorganism was obtained in the same manner as in Example 3. […] The amount of formed acrylamide in each of the collected microbial suspensions per unit dry weight of the microorganism was determined in the same manner as in Example 3.
Experiment [3] has as its target T1, nitrile hydratase. The experiment in a line: Nitrile hydrating activity (acrylamide formed) of wet microorganism contacted with an oxidizing agent in deoxidized water. Format: cell-based, Escherichia coli HB101 (MT-10822 strain). Further details: expressed in transfected cells; host or cells: Escherichia coli HB101 (transformant MT-10822, FERM BP-5785), IPTG-induced.
Description: as §1
The resulting microorganism, 0.20 g, was suspended in previously deoxidized pure water in a 100 ml sealable glass container previously sufficiently purged with nitrogen, and potassium ferricyanide was added and suspended as an oxidizing agent at a final concentration shown in Table 1 to give 20.00 g suspension. Separately, an oxidizing agent-free microbial suspension was prepared in the same manner. The microbial suspension was kept at 20° C. for 15 minutes under stirring.
as §2
The amount of acrylamide formed per unit dry weight of the microorganism was determined in the same manner as in Example 3 except that in place of potassium ferricyanide, ammonium persulfate was added and suspended as an oxidizing agent at a concentration shown in Table 1.
The microbial suspension was kept at 20° C. under stirring. 0 minute, 10 minutes, 2 hours and 24 hours after the stirring was initiated, a small amount of the microbial suspension was collected, and the amount of formed acrylamide per unit dry weight of the microorganism was determined in the same manner as in Example 3.
Separately, a microbial suspension wherein the oxidizing agent was not added and the pH value was not adjusted was also prepared in the same manner. The microbial suspension was kept at 20° C. for 15 minutes under stirring. The amount of formed acrylamide per unit dry weight of the microorganism was determined in the same manner as in Example 3.
Separately, a microbial suspension wherein the oxidizing agent was not added was also prepared in the same manner. The amount of formed acrylamide per unit dry weight of the microorganism was determined in the same manner as in Example 3.

Several values for one entry are separate records, joined by “and”; a condition that tells them apart may be missing. Equal entries are not always repeated.

T1 sequence (Q7SID2 whole entry): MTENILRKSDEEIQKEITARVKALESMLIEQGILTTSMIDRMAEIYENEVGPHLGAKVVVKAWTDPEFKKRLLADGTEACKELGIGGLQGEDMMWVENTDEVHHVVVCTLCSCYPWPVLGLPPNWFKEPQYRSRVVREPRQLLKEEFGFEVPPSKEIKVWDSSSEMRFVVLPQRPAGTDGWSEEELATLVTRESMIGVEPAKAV
T1 sequence (Q7SID3 whole entry): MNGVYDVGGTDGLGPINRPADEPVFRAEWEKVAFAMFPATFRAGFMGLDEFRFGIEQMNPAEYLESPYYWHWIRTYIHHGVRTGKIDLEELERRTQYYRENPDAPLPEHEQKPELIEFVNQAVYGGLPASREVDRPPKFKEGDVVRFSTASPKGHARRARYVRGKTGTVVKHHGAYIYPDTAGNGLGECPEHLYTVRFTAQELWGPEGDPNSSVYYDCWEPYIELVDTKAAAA

As for `O=O` [oxygen], the “amount of formed acrylamide per unit dry weight of the microorganism (0 hour of storage = 1)” value in experiment [1] is 1.1 and 1.0. In addition, in experiment [2], the “nitrile hydrating activity of the nitrile hydratase on contact with oxygen, depending on the contact time (in words)” value is listed as “improved depending on the contact time”.

On to `N.N.O=S(=O)(O)OOS(=O)(=O)O` [AMMONIUM PERSULFATE, ammonium persulfate], for which, in experiment [3], the “AMOUNT OF […] (RELATIVE VALUE)” value turned out to be 1.6 relative value and the “nitrile hydrating activity of the nitrile hydratase on contact of the microorganism with the oxidizing agent (in words)” value is “improved”.

For `OO` [HYDROGEN PEROXIDE, hydrogen peroxide], in experiment [3], the “AMOUNT OF […] (RELATIVE VALUE)” value worked out at 2.4 relative value and the “nitrile hydrating activity of the nitrile hydratase on contact of the microorganism with the oxidizing agent (in words)” value is “improved”.
